Results as given in patent publication US20200163984A1, “USE OF ISOVALERYL SPIRAMYCIN I, II AND/OR III IN MANUFACTURING MEDICAMENT FOR TREATING AND/OR PREVENTING TUMOR, AND MEDICAMENT” (SHENYANG FUYANG PHARMACEUTICAL TECHNOLOGY CO., LTD., priority 2017, published 2020).
≈ marks a conversion by molar mass, not a printed value.

How the values were obtained:
[1] = system: transplanted tumor of human glioma cell U251; assay: U251 transplanted tumor in nude mice; settings: for Tumor Volume (mm3) (d 1): d1
Method: (§1) U251 cells in a logarithmic growth phase were taken and subjected to a trypan blue exclusion experiment showing that the cell viability was more than 95%, then the cells were subjected to trypsinization, centrifugation, and supernatant removal. Then cell concentration was adjusted to 1×10^7/ml with matrigel, then each nude mouse was inoculated subcutaneously with 0.2 ml of cells at its right armpit and recorded as the first day of inoculation. When the tumor grows to be greater than or equal to 100 mm^3, the mice were randomly divided into 11 groups with 6 mice in each group: a model group, a cyclophosphamide group, isovaleryl spiramycin I groups with doses of 25, 50 and 100 mg/kg, isovaleryl spiramycin II groups with doses of 25, 50 and 100 mg/kg, and isovaleryl spiramycin III groups with doses of 25, 50 and 100 mg/kg. Each group was continuously administered intragastrically for 30 days with a dose of 20 ml/kg. The mice were sacrificed the next day after drug withdrawal and the indicators were tested. The long diameter and short diameter of the tumor, and the body weight of each mouse were recorded every 3 days from drug administration to nude mouse sacrifice.
(§2) The body weight of the nude mice and the long diameter (a) and short diameter (b) of the transplanted tumor were measured every 3 days, and the tumor volume (v), relative tumor volume (RTV) and relative tumor proliferation rate (T/C) are calculated respectively according to the following formulas, wherein V=a×b^2/2; RTV=V/V0 (V0 is the tumor volume before administration, V is the tumor volume before sacrifice), and T/C (%)=treatment group RTV/model control group RTV×100%.
(§3) Each mouse was weighed and sacrificed. After the tumor was completely stripped off from the body of the mouse, the non-tumor tissues such as blood stains and fat were removed to weigh the tumor and calculate the tumor growth inhibition rate. The average tumor weight of each group of mice is used as an indicator of efficacy. Tumor growth inhibition rate (%)=(1−the average tumor weight of the treatment group/the average tumor weight of the model group)×100%.

[2] = system: transplanted tumor of human renal cell adenocarcinoma cell 769-P; assay: 769-P transplanted tumor in nude mice; settings: for Tumor Volume (mm3) (d 1): d1
Method: as §1, with “Then” for “U251 cells in a logarithmic growth phase were taken and subjected to a trypan blue exclusion experiment showing that the cell viability was more than 95%, then the cells were subjected to trypsinization, centrifugation, and supernatant removal. Then”, “the” for “the body”
as §2, §3

[3] = Thymus index and spleen index of H22 liver cancer tumor-bearing mice
Method: In the H22 liver cancer model, the mice inoculated with the tumor were randomly divided into groups with 10 mice in each group on the next day of inoculation. The groups included: a model control group, a positive drug cyclophosphamide control group (CTX, 26 mg/kg), isovaleryl spiramycin I groups with doses of 13, 26 and 52 mg/kg; isovaleryl spiramycin II groups with doses of 13, 26 and 52 mg/kg; isovaleryl spiramycin III groups with doses of 13, 26 and 52 mg/kg. Each group was continuously administered intragastrically for 7 days with a dose of 20 ml/kg.

[4] = system: human promyelocytic leukemia cell HL-60; settings: HL-60, MTT, 48 h
Method: The purpose of the assay is to evaluate the in vitro cell proliferation inhibition or cytotoxic activity of a tested sample.
U937 and HL-60 were suspension cells, and cells in a logarithmic growth phase were selected and prepared into a 2×10^5/ml cell suspension by a RPMI 1640 culture medium containing 10% fetal bovine serum. And the cell suspension was inoculated in a 96-well culture plate, and each well was 50 μL and the 96-well culture plate was cultured at 37° C. and 5% CO2 for 24 hours. 50 μL of a culture medium containing different concentrations of the tested sample isovaleryl spiramycin I, isovaleryl spiramycin II, or isovaleryl spiramycin III was added in the experimental group, while a culture medium containing the same volume of solvent was added into the control group. Each group was set up with 3 parallel wells that were cultured at 37° C. and 5% CO2 for 48 h. And 10 μL of freshly prepared medium containing 5 mg/ml MTT was added into each well for continuous incubation for 4 hours at 37° C. The crystals were dissolved in 100 μL of a triple solution (SDS 10 g, 10 M HCl 0.1 mL, isobutanol 5 mL, diluted with distilled water to 100 mL), and incubated at 37° C. for 12 hours. The optical density value was measured at 492 nm with a microplate reader.
The inhibition rate of the medicament on tumor cell growth is calculated according to the following formula:
Tumor cell growth inhibition rate (%)=[A492 (negative control)−A492 (dosing group)]/A492 (negative control)×100%
And the half-inhibitory concentration (IC50) of the sample is determined therefrom.

[5] = U251, high dose (100 mg/kg in method) i.g. 30 days
[6] = U251, low dose (25 mg/kg in method) i.g. 30 days
[7] = U251, medium dose (50 mg/kg in method) i.g. 30 days
[8] = 769-P, high dose (100 mg/kg in method) i.g. 30 days
[9] = 769-P, low dose (25 mg/kg in method) i.g. 30 days
[10] = 769-P, medium dose (50 mg/kg in method) i.g. 30 days

mouse weight compared with the model group ([1]; mouse, in vivo): no significant changes
mouse weight compared with the model group ([2]; mouse, in vivo): no significant changes
IC50 [4]: 29.39 ± 1.82 µg/mL (≈ 30.3 µM)
SMILES: COC1C(OC(C)=O)CC(=O)OC(C)CC=CC=CC(OC2CCC(N(C)C)C(C)O2)C(C)CC(CC=O)C1OC1OC(C)C(OC2CC(C)(O)C(OC(=O)CC(C)C)C(C)O2)C(N(C)C)C1O (centres unmarked) [Isovaleryl spiramycin II, isovaleryl spiramycin II]
Relative Tumor Proliferation Rate (T/C) [1, 5]: 43.26%
tumor growth inhibition rate [1, 5]: 40.26%
Relative Tumor Proliferation Rate (T/C) [1, 6]: 76.14%
tumor growth inhibition rate [1, 6]: 10.91%
tumor volume and relative tumor volume compared with the model group ([1]; U251, low, medium and high doses, P<0.05): significantly lower
Relative Tumor Proliferation Rate (T/C) [1, 7]: 51.88%
tumor growth inhibition rate [1, 7]: 15.81%
Inhibition Rate (%) ([1]; U251 nude mice, 25 mg/kg): 10.91%
Relative Tumor Proliferation Rate (T/C) ([1]; U251 nude mice, 25 mg/kg): 76.14%
Relative Tumor Volume (RTV) ([1]; U251 nude mice, 25 mg/kg): 14.73 ± 1.33
Tumor Weight ([1]; U251 nude mice, 25 mg/kg): 1.23 ± 0.12 g
Tumor Volume (mm3) (d 1) ([1]; U251 nude mice, 25 mg/kg): 125.90 ± 11.45 mm3
Tumor Volume (mm3) (d30) ([1]; U251 nude mice, 25 mg/kg): 1596.45 ± 267.65 mm3
Inhibition Rate (%) ([1]; U251 nude mice, 50 mg/kg): 15.81%
Relative Tumor Proliferation Rate (T/C) ([1]; U251 nude mice, 50 mg/kg): 51.88%
Relative Tumor Volume (RTV) ([1]; U251 nude mice, 50 mg/kg): 14.31 ± 0.98
Tumor Weight ([1]; U251 nude mice, 50 mg/kg): 1.16 ± 0.10 g
Tumor Volume (mm3) (d 1) ([1]; U251 nude mice, 50 mg/kg): 118.33 ± 11.65 mm3
Tumor Volume (mm3) (d30) ([1]; U251 nude mice, 50 mg/kg): 1030.10 ± 207.19 mm3
Inhibition Rate (%) ([1]; U251 nude mice, 100 mg/kg): 40.26%
Relative Tumor Proliferation Rate (T/C) ([1]; U251 nude mice, 100 mg/kg): 43.26%
Relative Tumor Volume (RTV) ([1]; U251 nude mice, 100 mg/kg): 12.88 ± 1.54
Tumor Weight ([1]; U251 nude mice, 100 mg/kg): 0.83 ± 0.12 g
Tumor Volume (mm3) (d 1) ([1]; U251 nude mice, 100 mg/kg): 122.74 ± 10.75 mm3
Tumor Volume (mm3) (d30) ([1]; U251 nude mice, 100 mg/kg): 890.78 ± 225.34 mm3
Body Weight (g) (d1) ([1]; mouse, in vivo, 25 mg/kg): 20.77 ± 0.65 g
Body Weight (g) (d30) ([1]; mouse, in vivo, 25 mg/kg): 20.85 ± 0.79 g
Body Weight (g) (d1) ([1]; mouse, in vivo, 50 mg/kg): 21.25 ± 0.46 g
Body Weight (g) (d30) ([1]; mouse, in vivo, 50 mg/kg): 20.86 ± 0.43 g
Body Weight (g) (d1) ([1]; mouse, in vivo, 100 mg/kg): 20.92 ± 0.82 g
Body Weight (g) (d30) ([1]; mouse, in vivo, 100 mg/kg): 21.47 ± 0.70 g
Inhibition Rate (%) ([2]; 769-P nude mice, 25 mg/kg): 38.29%
Relative Tumor Proliferation Rate (T/C) ([2]; 769-P nude mice, 25 mg/kg): 68.22%
Relative Tumor Volume (RTV) ([2]; 769-P nude mice, 25 mg/kg): 12.59 ± 5.32
Tumor Weight ([2]; 769-P nude mice, 25 mg/kg): 1.27 ± 0.42 g
Tumor Volume (mm3) (d 1) ([2]; 769-P nude mice, 25 mg/kg): 162.50 ± 59.24 mm3
Tumor Volume (mm3) (d30) ([2]; 769-P nude mice, 25 mg/kg): 2045.85 ± 301.35 mm3
Inhibition Rate (%) ([2]; 769-P nude mice, 50 mg/kg): 47.61%
Relative Tumor Proliferation Rate (T/C) ([2]; 769-P nude mice, 50 mg/kg): 42.64%
Relative Tumor Volume (RTV) ([2]; 769-P nude mice, 50 mg/kg): 7.87 ± 2.29
Tumor Weight ([2]; 769-P nude mice, 50 mg/kg): 1.3 ± 0.23 g
Tumor Volume (mm3) (d 1) ([2]; 769-P nude mice, 50 mg/kg): 193.10 ± 35.41 mm3
Tumor Volume (mm3) (d30) ([2]; 769-P nude mice, 50 mg/kg): 1519.68 ± 239.38 mm3
Inhibition Rate (%) ([2]; 769-P nude mice, 100 mg/kg): 61.79%
Relative Tumor Proliferation Rate (T/C) ([2]; 769-P nude mice, 100 mg/kg): 34.76%
Relative Tumor Volume (RTV) ([2]; 769-P nude mice, 100 mg/kg): 6.42 ± 0.99
Tumor Weight ([2]; 769-P nude mice, 100 mg/kg): 0.79 ± 0.06 g
Tumor Volume (mm3) (d 1) ([2]; 769-P nude mice, 100 mg/kg): 109.14 ± 10.13 mm3
Tumor Volume (mm3) (d30) ([2]; 769-P nude mice, 100 mg/kg): 700.14 ± 100.08 mm3
Relative Tumor Proliferation Rate (T/C) [2, 8]: 34.76%
tumor growth inhibition rate [2, 8]: 61.79%
Relative Tumor Proliferation Rate (T/C) [2, 9]: 68.22%
tumor growth inhibition rate [2, 9]: 38.29%
tumor volume and relative tumor volume compared with the model group ([2]; 769-P, low, medium and high doses, P<0.05): significantly lower
Relative Tumor Proliferation Rate (T/C) [2, 10]: 42.64%
tumor growth inhibition rate [2, 10]: 47.61%
Body Weight (g) (d1) ([2]; mouse, in vivo, 25 mg/kg): 22.17 ± 1.47 g
Body Weight (g) (d30) ([2]; mouse, in vivo, 25 mg/kg): 22.05 ± 0.71 g
Body Weight (g) (d1) ([2]; mouse, in vivo, 50 mg/kg): 22.07 ± 1.52 g
Body Weight (g) (d30) ([2]; mouse, in vivo, 50 mg/kg): 22.42 ± 0.54 g
Body Weight (g) (d1) ([2]; mouse, in vivo, 100 mg/kg): 21.96 ± 1.19 g
Body Weight (g) (d30) ([2]; mouse, in vivo, 100 mg/kg): 22.33 ± 0.41 g
Spleen Index (%) ([3]; dose 13 mg/kg): 0.59 ± 0.24%
Thymus Index (%) ([3]; dose 13 mg/kg): 0.12 ± 0.05%
Spleen Index (%) ([3]; dose 26 mg/kg): 0.68 ± 0.24%
Thymus Index (%) ([3]; dose 26 mg/kg): 0.16 ± 0.03%
Spleen Index (%) ([3]; dose 52 mg/kg): 0.64 ± 0.17%
Thymus Index (%) ([3]; dose 52 mg/kg): 0.17 ± 0.10%
